Laboratory results reported in patent US10555987B2, “GHRH agonists for the treatment of ischemic disorders” (UNIVERSITY OF MIAMI, priority 2012, dated 2020).
Non-standard residues stand in square brackets, D forms with d. Residues, ends and D or L forms follow the SMILES beside them. *: point of attachment. Desaminotyrosyl = O=C(CCc1ccc(O)cc1)*; NMeY = CN[C@@H](Cc1ccc(O)cc1)C(=O)O; Nle = CCCC[C@H](N)C(=O)O; Orn = NCCC[C@H](N)C(=O)O; Abu = CC[C@H](N)C(=O)O; Aoc = NCCCCCCCC(=O)O

What was measured:
[1] = tested on: GH release; experiment: In vivo endocrine activity, GH release after intravenous administration (Table 8); conditions: rat, i.v. injection
Method: In vivo tests on endocrine activity of new GHRH agonists (Intravenous administration). For in vivo tests based on intravenous administration, adult male Sprague-Dawley rats were anesthetized with pentobarbital (6 mg/100/g, b.w.), and GHRH agonists were injected 20 minutes after the injection of pentobarbital. Blood samples were taken from the jugular vein (pretreated level), immediately after hGHRH(1-29)NH2 injection (as a control) or after hGHRH analogs injection. Blood samples were taken from the jugular vein 5, 15 and 30 minutes after the injection. The blood samples were centrifuged, plasma was removed and the GH level was measured by ELISA.

[2] = target: T1, GHRH receptor (Homo sapiens, UniProt Q02643); experiment: GHRH receptor binding, competition with 125I-labeled JV-1-42, human pituitary membrane homogenates (Table 7); set-up: Normal human pituitaries were purchased from the National Hormone and Peptide Program; tissue National Hormone and Peptide Program (A.F. Parlow, Harbor-UCLA Medical Center, Torrance, Calif.); host or cells: normal human pituitary, membrane fraction; conditions: JI-38 = 1, Table 7
T1 sequence (Q02643 23-423): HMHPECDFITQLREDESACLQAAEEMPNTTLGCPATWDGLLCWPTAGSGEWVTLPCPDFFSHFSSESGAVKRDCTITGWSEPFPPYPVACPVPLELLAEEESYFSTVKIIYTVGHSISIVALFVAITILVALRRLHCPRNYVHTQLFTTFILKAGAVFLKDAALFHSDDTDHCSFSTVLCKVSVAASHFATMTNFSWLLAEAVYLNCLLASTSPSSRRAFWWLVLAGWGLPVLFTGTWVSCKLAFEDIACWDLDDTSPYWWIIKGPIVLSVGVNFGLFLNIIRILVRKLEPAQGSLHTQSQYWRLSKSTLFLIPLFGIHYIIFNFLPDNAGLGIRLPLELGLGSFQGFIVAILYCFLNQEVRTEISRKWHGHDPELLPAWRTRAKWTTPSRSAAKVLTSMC
Description: Normal human pituitaries were purchased from the National Hormone and Peptide Program (A.F. Parlow, Los Angeles, County Harbor-UCLA Medical Center, Torrance, Calif.).

[3] = tested on: GH release; experiment: In vivo endocrine activity, GH release after subcutaneous administration (Table 9); conditions: rat, subcutaneous (s.c.) injection
Method: Subcutaneous Administration. Adult male rats were used and anesthetized with pentobarbital (6 mg/100 g, b.w.), by i.p. injection. […] Blood samples were taken from the jugular vein 5, 15 and/or 30 minutes after the injection. The blood samples were centrifuged, plasma was removed and the GH level was measured byELISA. The results are summarized in terms of potency in Table 9.

[4] = tested on: myocardial infarction (Fisher-344 rats); experiment: Serial echocardiography after MI, compared to JI-38 (Example 15, Table 15); type: in vivo, rat; set-up: key to LVEDD: Left Ventricular End Diastolic Diameter / LVESD: Left Ventricular End Systolic Diameter / VD: Ventricular Diastole / VS: Ventricular Systole / EF: Ejection Fraction / FS: Fraction Shortening: ↓: downward arrow denotes lower than JI-38; ↑: upward arrow denotes greater than JI-38; =denotes same as JI-38; ⬇⬇: double arrow denotes greater effect; ⬆⬆: double arrow denotes greater effect; conditions: in comparison to JI-38
Method: Echocardiographic measurements were obtained at baseline, 2 days, 1, 2 and 4 weeks. Echocardiographic assessments were performed in anesthetized rats (2% isoflurane inhalation) using a Vevo-770 echocardiogram (Visual Sonics Inc., Toronto, Ontario, Canada) equipped with a 17.5-MHz transducer. Cardiac dimensions: LV end diastolic (LVEDD), end systolic (LVESD) diameters and fractional shortening (FS) were recorded from M-mode images using averaged measurements from 3 to 5 consecutive cardiac cycles according to the American Society of Echocardiography. Ejection fraction (EF) was calculated from bi-dimensional long-axis parasternal views taken through the infarcted area. All images were analyzed using Vevo 770 3.0.0 software (Visual Sonics Inc., Toronto, Ontario, Canada).
(§1) Myocardial infarction (MI) was induced by permanent ligation of the left coronary artery in female 6-month-old Fisher-344 rats. Following experimental myocardial infarction (MI), rats were randomly assigned to receive either placebo, JI-38, or one of the following new analogs of GHRH: MR-30 l(P-21301), MR-303(P-21303), MR-356(P-20356), MR-502(25502), MR-350(P-20350), MR-36 l(P-20361), MR-367(P-20367), MR-403(P-27403), MR-404(P-27404), and MR-409(P-27409) (10 rats per each group). The GHRH peptide agonists were adminsistered starting 2 hours post-surgery, 1 week, 2 week, and 4 week intervals. All treatment was given subcutaneously twice daily. Cardiac performance was assessed by serial echocardiography and hemodynamic analysis derived from pressure-volume loops as described before.
The echocardiographic experiments are shown in FIGS. 10-15 and the results are summarized in Table 15 (results were expressed in comparison to JI-38; downward arrow denotes lower than JI-38; upward arrow denotes greater than JI-38; =denotes same as JI-38; and double arrow denotes greater effect).

[5] = tested on: myocardial infarction (Fisher-344 rats); experiment: Hemodynamic analysis (pressure-volume loops), body and heart weight after MI, compared to JI-38 (Example 15, Table 16); type: in vivo, rat; set-up: key to ESP (End-Systolic Pressure) / EDP (End-Diastolic Pressure) / ESV (End-Systolic Volume) / PRSW (Preload Recruitable Stroke Work) / Ees (End-systolic Elastance) / dP/dt max (peak rate of the pressure rise) / dP/dt max_EDV / dP/dt min / TAU (relaxation time constant calculated by Weiss method) / SV (Stroke Volume) / CO (Cardiac Output) / SW (Stroke Work) / EF / Ea/Ees / Ea (arterial Elastance): ↓: downward arrow denotes lower than JI-38; ↑: upward arrow denotes greater than JI-38; =denotes same as JI-38; ⬇⬇: double arrow denotes greater effect; ⬆⬆: double arrow denotes greater effect; conditions: rat MI model, s.c. twice daily; pressure-volume loops; expressed in comparison to JI-38
Method: Rats were anesthetized by intramuscular injection of a mixture of ketamine (100 mg/kg), xylazine (20 mg/kg) and acepromazine (10 mg/kg). A 2-F micromanometer tipped catheter (SPR-838, Millar Instruments, Houston, Tex.) was inserted into the right carotid artery and advanced retrograde into the left ventricle. Measurements were calibrated by injecting a hypertonic saline (15%) bolus to determine extra-ventricular conductance; relative volume units were converted to actual volume using the cuvette calibration method. All analyses were performed using PVAN 3.0 software (Millar Instruments, Houston, Tex.).
as §1
The hemodynamic studies are shown in FIGS. 16-33 and the results are summarized in Table 16 (results were expressed in comparison to JI-38; downward arrow denotes lower than JI-38; upward arrow denotes greater than JI-38; =denotes same as JI-38; and double arrow denotes greater effect).

Question: `CCCC[C@H](NC(=O)[C@@H](NC(=O)[C@H](CC(=O)O)NC(=O)[C@H](CCC(N)=O)NC(=O)[C@H](CC(C)C)NC(=O)[C@H](CC(C)C)NC(=O)[C@H](CCCN)NC(=O)[C@H](CCCNC(=N)N)NC(=O)[C@H](C)NC(=O)[C@H](CO)NC(=O)[C@H](CC(C)C)NC(=O)[C@H](CCC(N)=O)NC(=O)[C@H](CC)NC(=O)[C@H](CC(C)C)NC(=O)[C@@H](NC(=O)[C@H](CCCN)NC(=O)[C@H](CCCNC(=N)N)NC(=O)[C@H](Cc1ccc(O)cc1)NC(=O)[C@H](CO)NC(=O)[C@H](CC(N)=O)NC(=O)[C@@H](NC(=O)[C@H](Cc1ccccc1)NC(=O)[C@@H](NC(=O)[C@H](C)NC(=O)[C@H](CC(=O)O)NC(=O)[C@@H](C)NC(=O)CCc1ccc(O)cc1)[C@@H](C)CC)[C@@H](C)O)C(C)C)[C@@H](C)CC)C(=O)N[C@@H](CC(=O)O)C(=O)N[C@@H](CCCNC(=N)N)C(=O)NCCCCCCCC(N)=O` [Peptide P-21300, [Dat^1, D-Ala^2, Orn^12, Abu^15, Orn^21, Nle^27, Asp^28, Amc^30]hGHRH(1-30)NH2] (Desaminotyrosyl-[dA]DAIFTNSYR[Orn]VL[Abu]QLSAR[Orn]LLQDI[Nle]DR[Aoc]-NH2) was tested. Which “GH releasing potency in vivo relative to JI-38 (=1)” value ([1]; 5 min after) did it give?
Answer: Its value is 0.39.

Question: What about the “GH releasing potency in vivo relative to JI-38 (=1)” value ([1]; 15 min after) of the same molecule?
Answer: Its value is 0.51.

Question: What about the “GH releasing potency in vivo relative to JI-38 (=1)” value ([1]; 30 min after) of the same molecule?
Answer: The value was 0.81.

Question: And the “Relative affinity (Binding potency) vs JI-38” value [2]?
Answer: Its value is 1.20.

Question: Which “GH releasing potency in vivo relative to JI-38 (=1)” value ([1]; 5 min after) does the source give for `CCCC[C@H](NC(=O)[C@@H](NC(=O)[C@H](CC(=O)O)NC(=O)[C@H](CCC(N)=O)NC(=O)[C@H](CC(C)C)NC(=O)[C@H](CC(C)C)NC(=O)[C@H](CCCN)NC(=O)[C@H](CCCNC(=N)N)NC(=O)[C@H](C)NC(=O)[C@H](CO)NC(=O)[C@H](CC(C)C)NC(=O)[C@H](CCC(N)=O)NC(=O)[C@H](CC)NC(=O)[C@H](CC(C)C)NC(=O)[C@@H](NC(=O)[C@H](CCCN)NC(=O)[C@H](CCCNC(=N)N)NC(=O)[C@H](Cc1ccc(O)cc1)NC(=O)[C@H](CO)NC(=O)[C@H](CC(N)=O)NC(=O)[C@@H](NC(=O)[C@H](Cc1ccccc1)NC(=O)[C@@H](NC(=O)[C@H](C)NC(=O)[C@H](CC(=O)O)NC(=O)[C@H](C)NC(=O)[C@H](Cc1ccc(O)cc1)NC)[C@@H](C)CC)[C@@H](C)O)C(C)C)[C@@H](C)CC)C(=O)N[C@@H](CC(=O)O)C(=O)N[C@@H](CCCNC(=N)N)C(=O)NCCCCCCCC(N)=O` [Peptide P-21301, [N—Me-Tyr^1, Orn^12, Abu^15, Orn^21, Nle^27, Asp^28, Amc^30]hGHRH(1-30)NH2] (H-[NMeY]ADAIFTNSYR[Orn]VL[Abu]QLSAR[Orn]LLQDI[Nle]DR[Aoc]-NH2) here?
Answer: The value was 0.79.

Question: And the “GH releasing potency in vivo relative to JI-38 (=1)” value ([1]; 15 min after)?
Answer: The value was 0.92.

Question: And the “GH releasing potency in vivo relative to JI-38 (=1)” value ([1]; 30 min after)?
Answer: Its value is 1.00.

Question: What about the “GH releasing potency relative to JI-38 (=1)” value ([3]; 15 min after) of the same molecule?
Answer: The value was 0.41.

Question: What about the “GH releasing potency relative to JI-38 (=1)” value ([3]; 30 min after) of the same molecule?
Answer: The value was 0.74.

Question: What about the “EF: Ejection Fraction” value [4] of the same molecule?
Answer: Its value is “↓”.

Question: And the “FS: Fraction Shortening” value [4]?
Answer: The value was “=”.

Question: What about the “LVEDD: Left Ventricular End Diastolic Diameter” value [4] of the same molecule?
Answer: Its value is “↑”.

Question: What about the “LVESD: Left Ventricular End Systolic Diameter” value [4] of the same molecule?
Answer: Its value is “↑”.

Question: What about the “VD: Ventricular Diastole” value [4] of the same molecule?
Answer: The value was “↑”.

Question: And the “VS: Ventricular Systole” value [4]?
Answer: The value was “↑”.

Question: And the “CO (Cardiac Output)” value [5]?
Answer: Its value is “=”.

Question: And the “EDP (End-Diastolic Pressure)” value [5]?
Answer: Its value is “↑”.

Question: What about the EF [5] of the same molecule?
Answer: The EF was “↓”.

Question: And the “ESP (End-Systolic Pressure)” value [5]?
Answer: The value was “↓”.

Question: What about the “ESV (End-Systolic Volume)” value [5] of the same molecule?
Answer: Its value is “↑”.

Question: What about the “Ea (arterial Elastance)” value [5] of the same molecule?
Answer: Its value is “=”.

Question: And the Ea/Ees [5]?
Answer: Its Ea/Ees is “↑”.

Question: What about the “Ees (End-systolic Elastance)” value [5] of the same molecule?
Answer: Its value is “=”.

Question: And the “PRSW (Preload Recruitable Stroke Work)” value [5]?
Answer: The value was “=”.

Question: What about the “SV (Stroke Volume)” value [5] of the same molecule?
Answer: Its value is “=”.

Question: What about the “SW (Stroke Work)” value [5] of the same molecule?
Answer: The value was “↓”.

Question: What about the “TAU (relaxation time constant calculated by Weiss method)” value [5] of the same molecule?
Answer: The value was “=”.

Question: What about the “dP/dt max (peak rate of the pressure rise)” value [5] of the same molecule?
Answer: The value was “↓”.

Question: What about the “dP/dt max_EDV” value [5] of the same molecule?
Answer: The value was “↓”.

Question: And the dP/dt min [5]?
Answer: The dP/dt min was “=”.

Question: And the “Relative affinity (Binding potency) vs JI-38” value [2]?
Answer: The value was 1.45.
